In general, GI50 refers to the concentration giving 50% growth inhibition. In general, TGI refers to the concentration giving total growth inhibition. Broadly, the LC50 is the concentration lethal to half of the exposed cells or organisms. Higher therefore signals lower toxicity.

This note sets out measurements from ChEMBL document CHEMBL1139048, “Synthesis and in vitro antitumoral activity of new 3,5-dicyanopyridine derivatives” (2007).

Molecules are shown by their SMILES.

Holding throughout (format): functional
Assay [1] concerns A498. Nature of the assay: Antiproliferative activity against human A498 cells after 48 hrs by SRB protein assay. The note with it: A498, 48 h. Background: The SRB assay estimates cell density from bound dye.
Assay [2] deals with NCI-H522. As to the kind of experiment: Antiproliferative activity against human NCI-H522 cells after 48 hrs by SRB protein assay. The note with it: NCI-H522, 48 h.
Assay [3] has as its system SNB-75. Nature of the assay: Antiproliferative activity against human SNB75 cells after 48 hrs by SRB protein assay. The note with it: SNB-75, 48 h.
Assay [4] concerns OVCAR-3. As to the kind of experiment: Antiproliferative activity against human OVCAR-3 cells after 48 hrs by SRB protein assay. The note with it: OVCAR-3, 48 h.
The subject of assay [5] is CAKI-1. Nature of the assay: Antiproliferative activity against human CAKI1 cells after 48 hrs by SRB protein assay. The note with it: CAKI-1, 48 h.
In assay [6] the test system is MDA-MB-231. Nature of the assay: Antiproliferative activity against human MDA-MB-231 cells after 48 hrs by SRB protein assay. The conditions noted are these: MDA-MB-231, 48 h.
The test system of assay [7] is MDA-MB-435. Nature of the assay: Antiproliferative activity against human MDA-MB-435 cells after 48 hrs by SRB protein assay. The note with it: MDA-MB-435, 48 h.
In assay [8] the test system is IGROV-1. As to the kind of experiment: Antiproliferative activity against human IGROV1 cells after 48 hrs by SRB protein assay. The note with it: IGROV-1, 48 h.
Assay [9] concerns SK-OV-3. Nature of the assay: Antiproliferative activity against human SKOV3 cells after 48 hrs by SRB protein assay. The conditions noted are these: SK-OV-3, 48 h.
For assay [10], the system named is T47D. As to the kind of experiment: Antiproliferative activity against human T47D cells after 48 hrs by SRB protein assay.
Assay [11] deals with HCC 2998. As to the kind of experiment: Antiproliferative activity against human HCC2998 cells after 48 hrs by SRB protein assay. The conditions noted are these: HCC 2998, 48 h.
Assay [12] concerns MCF7. As to the kind of experiment: Antiproliferative activity against human MCF7 cells after 48 hrs by SRB protein assay. The note with it: MCF7, 48 h.
Assay [13] has as its system K562. As to the kind of experiment: Antiproliferative activity against human K562 cells after 48 hrs by SRB protein assay. The note with it: K562, 48 h.
Assay [14] relates to HOP-62. Nature of the assay: Antiproliferative activity against human HOP62 cells after 48 hrs by SRB protein assay. The conditions noted are these: HOP-62, 48 h.
The test system of assay [15] is HCT-116. As to the kind of experiment: Antiproliferative activity against human HCT116 cells after 48 hrs by SRB protein assay. The conditions noted are these: HCT-116, 48 h.
The test system of assay [16] is HT-29. Nature of the assay: Antiproliferative activity against human HT29 cells after 48 hrs by SRB protein assay. The note with it: HT-29, 48 h.
Assay [17] has as its system U-251. As to the kind of experiment: Antiproliferative activity against human U251 cells after 48 hrs by SRB protein assay. The note with it: U-251, 48 h.
In assay [18] the test system is Malme-3M. Nature of the assay: Antiproliferative activity against human MALME3M cells after 48 hrs by SRB protein assay.
Assay [19] concerns M14. Nature of the assay: Antiproliferative activity against human M14 cells after 48 hrs by SRB protein assay. The conditions noted are these: M14, 48 h.
The subject of assay [20] is NCI/ADR-RES. Nature of the assay: Antiproliferative activity against human NCI/ADR-RES cells after 48 hrs by SRB protein assay.
The test system of assay [21] is COLO 205. Nature of the assay: Antiproliferative activity against human COLO205 cells after 48 hrs by SRB protein assay. The note with it: COLO 205, 48 h.
In assay [22] the test system is SR. As to the kind of experiment: Antiproliferative activity against human SR cells after 48 hrs by SRB protein assay.
Assay [23] deals with HOP-92. As to the kind of experiment: Antiproliferative activity against human HOP92 cells after 48 hrs by SRB protein assay. The conditions noted are these: HOP-92, 48 h.
The subject of assay [24] is RXF 393. Nature of the assay: Antiproliferative activity against human RXF393 cells after 48 hrs by SRB protein assay. The conditions noted are these: RXF 393, 48 h.
Assay [25] has as its system UO-31. Nature of the assay: Antiproliferative activity against human UO31 cells after 48 hrs by SRB protein assay. The note with it: UO-31, 48 h.
The test system of assay [26] is NCI-H460. As to the kind of experiment: Antiproliferative activity against human NCI-H460 cells after 48 hrs by SRB protein assay. The note with it: NCI-H460, 48 h.
Assay [27] relates to CCRF-CEM. Nature of the assay: Antiproliferative activity against human CCRF-CEM cells after 48 hrs by SRB protein assay.
For assay [28], the system named is MOLT-4. Nature of the assay: Antiproliferative activity against human MOLT4 cells after 48 hrs by SRB protein assay. The note with it: MOLT-4, 48 h.
Assay [29] deals with RPMI-8226. As to the kind of experiment: Antiproliferative activity against human RPMI8226 cells after 48 hrs by SRB protein assay. The conditions noted are these: RPMI-8226, 48 h.
The test system of assay [30] is NCI-H226. As to the kind of experiment: Antiproliferative activity against human NCI-H226 cells after 48 hrs by SRB protein assay. The conditions noted are these: NCI-H226, 48 h.
Assay [31] has as its system SF-295. Nature of the assay: Antiproliferative activity against human SF295 cells after 48 hrs by SRB protein assay. The note with it: SF-295, 48 h.
Assay [32] deals with LOX IMVI. As to the kind of experiment: Antiproliferative activity against human LOXIMVI cells after 48 hrs by SRB protein assay.
The test system of assay [33] is SK-MEL-5. As to the kind of experiment: Antiproliferative activity against human SK-MEL-5 cells after 48 hrs by SRB protein assay. The conditions noted are these: SK-MEL-5, 48 h.
Assay [34] relates to UACC-62. As to the kind of experiment: Antiproliferative activity against human UACC62 cells after 48 hrs by SRB protein assay. The note with it: UACC-62, 48 h.
The test system of assay [35] is ACHN. Nature of the assay: Antiproliferative activity against human ACHN cells after 48 hrs by SRB protein assay.
The test system of assay [36] is SN12C. Nature of the assay: Antiproliferative activity against human SN12C cells after 48 hrs by SRB protein assay.

Take `N#Cc1c(N)nc(N2CCOCC2)c(C#N)c1-c1ccccc1Cl`: the figures for the GI50 in [1], in assay [2] and in assay [3] were 2.29 µM, 0.0234 µM and 0.417 µM, respectively. In addition, the TGI in [2] (read-out: Log TGI (converted)) is 2.82 µM.

With `N#Cc1c(N)nc(N2CCOCC2)c(C#N)c1-c1c(Cl)cccc1Cl`, the GI50 in assay [4] was 2.4 µM; in assay [1] it was 3.72 µM; in assay [5], 2.24 µM; in assay [6], 3.55 µM; in [7] it was 1.55 µM; in [2], 2.34 µM. Further, the GI50 in assay [8] is 2 µM; in [9], 4.07 µM; in assay [10], 3.39 µM; in [3], 1.74 µM; in [11] it was 0.0182 µM; in [12] it was 2.95 µM. For the same compound, the GI50 in assay [13] is 3.31 µM; in [14] it was 3.55 µM; in assay [15] it was 3.09 µM; in assay [16] it was 3.31 µM; in assay [17], 3.89 µM; in assay [18] it was 3.72 µM. Besides, the GI50 was 2.45 µM in assay [19] and 2.34 µM in [20]. The compound also showed an LC50 in [11] of 20 µM. Also, the TGI in assay [11] (read-out: Log TGI (converted)) was 2.45 µM.

Consider `COc1ccc(-c2c(C#N)c(N)nc(N3CCOCC3)c2C#N)cc1`, for which the GI50 in [1] is 7.41 µM; in assay [2], 8.71 µM; in [21] it was 2.14 µM; in assay [8], 3.09 µM; in [9] it was 5.01 µM; in assay [10] it was 0.832 µM.

Regarding `COc1cc(-c2c(C#N)c(N)nc(N3CCOCC3)c2C#N)cc(OC)c1OC`, the GI50 in assay [22] was 13.5 µM; in assay [21], 5.62 µM; in assay [10], 15.1 µM; in assay [3], 1.62 µM; in [11] it was 5.89 µM.

In [11], `N#Cc1c(N)nc(N2CCOCC2)c(C#N)c1-c1cccnc1` gave a GI50 of 8.71 µM.

As to `N#Cc1c(N)nc(N2CCOCC2)c(C#N)c1-c1ccc(Cl)cc1`, the GI50 was 8.91 µM in [23]; 8.13 µM in [1]; 14.1 µM in assay [8]; 14.5 µM in assay [3]; 0.479 µM in [24].

With `N#Cc1c(N)nc(N2CCSCC2)c(C#N)c1-c1ccc(O)cc1`, the GI50 in [22] was 11.2 µM; in [23], 10 µM; in assay [3], 11 µM; in assay [14], 12.6 µM.

For `COc1ccc(OC)c(-c2c(C#N)c(N)nc(N3CCOCC3)c2C#N)c1`, the GI50 in assay [9] is 12 µM; in [3], 12.9 µM.

For the compound `N#Cc1c(N)nc(N2CCOCC2)c(C#N)c1-c1ccncc1`, the GI50 is 18.6 µM in assay [1]; 12.3 µM in assay [8]; 12.6 µM in [10]; 13.5 µM in [11]; 9.12 µM in assay [18].

Regarding `N#Cc1c(N)nc(N2CCOCC2)c(C#N)c1-c1cccc(O)c1`, the values for the GI50 in assay [1], in [8] and in assay [3] were 14.8 µM, 18.6 µM and 17.4 µM, respectively.

In [3], `Cc1ccc(-c2c(C#N)c(N)nc(N3CCOCC3)c2C#N)o1` had a GI50 of 2.75 µM.

As for `N#Cc1c(N)nc(N2CCOCC2)c(C#N)c1-c1ccc(Cl)cc1Cl`, the 50% growth inhibitory concentration (GI50) was 3.31 µM in assay [23]; 2.69 µM in assay [1]; 5.75 µM in [7]; 4.79 µM in assay [2]; 6.61 µM in assay [8]; 6.31 µM in [3]. Moreover, the GI50 in assay [24] was 5.62 µM; in [25], 3.24 µM; in assay [26], 9.33 µM; in assay [12], 8.71 µM.

With `N#Cc1c(NCc2ccccc2)nc(NCc2ccccc2)c(C#N)c1-c1cccc(O)c1`, the GI50 is 3.39 µM in assay [27]; 3.31 µM in [28]; 3.09 µM in assay [29]; 2.09 µM in assay [22]; 2.51 µM in assay [23]; 2.88 µM in [30]. Moreover, the GI50 in assay [31] was 2.95 µM; in [32], 2.95 µM; in assay [33], 1.7 µM; in [34], 2.09 µM; in assay [4], 3.31 µM; in assay [1] it was 2 µM. Besides, the GI50 in assay [35] is 2.63 µM; in assay [5], 2.75 µM; in assay [36] it was 2.29 µM; in assay [6], 2.24 µM; in assay [7] it was 2.88 µM.

For the compound `N#Cc1c(N)nc(N2CCOCC2)c(C#N)c1-c1ccccn1`, the GI50 in [30] was 0.513 µM; in assay [34], 0.0339 µM; in assay [36], 0.038 µM.
